From patent publication US20240002391A1, “4-ALKOXYPYRROLO[2,1-F][1,2,4]TRIAZINES AND PREPARATION AND USES THEREOF” (BioSplice Therapeutics, Inc., priority 2022, published 2024) come the findings set out here.

The target of the test is recombinant DYRK1A kinase (Homo sapiens (Human), UniProt Q13627). The experiment in a line: DYRK1A kinase assay (Ser/Thr 18 peptide Z-lyte FRET). Type of test: biochemical. The following applies: DYRK1A kinase activity, Z-lyte Ser/Thr 18 peptide, 15 μM ATP; method text calls the value IC50; read-out: EC50 (the source's name). The procedure:
Representative compounds were screened using the assay procedure for DYRK1A kinase activity as described below.
Each compound was dissolved in DMSO as a 10 mM stock and used to prepare compound source plates. Serial dilution (1:3, 11-point dose-response curves from 10 μM to 0.00016 μM) and compound transfer was performed using the ECHO 550 (Labcyte, Sunnyvale, CA) into 1536-well black-walled round bottom plates (Coming).
The DYRK1A kinase assay was run using the Ser/Thr 18 peptide Z-lyte assay kit according to manufacturer's instructions (Life Technologies-a Division of Thermo-Fisher). This is a non-radioactive assay using fluorescence resonance energy transfer (FRET) between coumarin and fluorescein to detect kinase activity which is represented as a ratio of coumarin emission/fluorescein emission.
Briefly, recombinant DYRK1A kinase, ATP and Ser/Thr peptide 18 were prepared in 1X Kinase buffer to final concentrations of 0.25 μg/mL, 15 μM, and 4 μM respectively. The mixture was allowed to incubate with the representative compounds for one hour at room temperature. All reactions were performed in duplicate. Unphosphorylated (“0% Control”) and phosphorylated (“100% control”) forms of Ser/Thr 18 served as control reactions. Additionally, an 11-point dose-response curve of Staurosporine (luM top) was run to serve as a positive compound control.
After incubation, Development Reagent A was diluted in Development Buffer then added to the reaction and allowed to further incubate for one hour at room temperature. The plate was read at Ex 400 Em 455 to detect the coumarin signal and Ex 400 Em 520 to measure the signal (EnVision Multilabel Plate Reader, PerkinElmer).
The Emission ratio (Em) was calculated as a ratio of the coumarin (C) emission signal (at 445 nm)/Fluorescein (F) emission signal (at 520 nm). The percent phosphorylation was then calculated using the following formula: [1−((Em ratio X F100%)-C100%)/((C0%-C100%) +(Em ratio X (F100%−F0%)))]. Dose-response curves were generated, and inhibitory concentration (IC50) values were calculated using non-linear regression curve fit in the Dotmatics' Studies Software (Bishops Stortford, UK).

Turning to `COc1nc(N[C@H]2CC[C@@H](OCCO)CC2)nn2ccc(-c3ccc4nccnc4c3)c12` [Compound 343, 2-((cis-4-((4-Methoxy-5-(quinoxalin-6-yl)pyrrolo[2,1-f][1,2,4]triazin-2-yl)amino)cyclohexyl)oxy)ethan-1-ol], the IC50 was determined as 0.7 nM.

On to `COc1nc(N[C@H]2CC[C@](C)(O)CC2)nn2ccc(-c3cc(F)c4nc(C)n(C(C)C)c4c3)c12` [Compound 168, trans-4-((5-(4-Fluoro-1-isopropyl-2-methyl-1H-benzo[d]imidazol-6-yl)-4-methoxypyrrolo[2,1-f][1,2,4]triazin-2-yl)amino)-1-methylcyclohexan-1-ol], for which the IC50 came to 2.7 nM. Regarding `COc1nc(N[C@@H]2CCN(C(C)=O)CC2(F)F)nn2ccc(-c3cc(F)c4nnn(CC(F)F)c4c3)c12` [Compound 821, (R)-1-(4-((5-(1-(2,2-Difluoroethyl)-4-fluoro-1H-benzo[d][1,2,3]triazol-6-yl)-4-methoxypyrrolo[2,1-f][1,2,4]triazin-2-yl)amino)-3,3-difluoropiperidin-1-yl)ethan-1-one], the IC50 turned out to be 1.9 nM. Regarding `COc1nc(N[C@@H]2CCN(C)CC2(F)F)nn2ccc(-c3ccc4ncccc4c3)c12` [Compound 319, (R)—N-(3,3-Difluoro-1-methylpiperidin-4-yl)-4-methoxy-5-(quinolin-6-yl)pyrrolo[2,1-f][1,2,4]triazin-2-amine], the IC50 was found to be 2.2 nM. As to `CN1CC[C@@H](Nc2nc(OC3COC3)c3c(-c4ccc5nccnc5c4)ccn3n2)C(F)(F)C1` [Compound 1136, (R)—N-(3,3-Difluoro-1-methylpiperidin-4-yl)-4-(oxetan-3-yloxy)-5-(quinoxalin-6-yl)pyrrolo[2,1-f][1,2,4]triazin-2-amine], the IC50 is 3.8 nM.

For the compound `COc1nc(N[C@@H]2CN(C3COC3)C[C@@H]2F)nn2ccc(-c3ccc4nnn(CC(F)F)c4c3)c12` [Compound 739, 5-(1-(2,2-Difluoroethyl)-1H-benzo[d][1,2,3]triazol-6-yl)-N-((3R,4S)-4-fluoro-1-(oxetan-3-yl)pyrrolidin-3-yl)-4-methoxypyrrolo[2,1-f][1,2,4]triazin-2-amine], the IC50 amounted to 4.6 nM.

Take `COc1nc(N[C@@H]2CCCOC2)nn2ccc(-c3ccc4ncccc4c3)c12` [Compound 1050, (R)-4-Methoxy-5-(quinolin-6-yl)-N-(tetrahydro-2H-pyran-3-yl)pyrrolo[2,1-f][1,2,4]triazin-2-amine]: the IC50 is 13.5 nM. For the compound `COc1nc(N[C@@H]2CCN(C(C)=O)CC2(F)F)nn2cc(F)c(-c3ccc4ncccc4c3)c12` [Compound 1064, (R)-1-(3,3-Difluoro-4-((6-fluoro-4-methoxy-5-(quinolin-6-yl)pyrrolo[2,1-f][1,2,4]triazin-2-yl)amino)piperidin-1-yl)ethan-1-one], the IC50 was determined as 2 nM.

In the case of `COc1nc(NC2CCC3(CC2)COC3)nn2ccc(-c3ccc4nnn(CC(F)F)c4c3)c12` [Compound 801, 5-(1-(2,2-Difluoroethyl)-1H-benzo[d][1,2,3]triazol-6-yl)-4-methoxy-N-(2-oxaspiro[3.5]nonan-7-yl)pyrrolo[2,1-f][1,2,4]triazin-2-amine], the IC50 came out at 3.2 nM.

For the compound `COc1nc(N[C@H]2CCN(C3COC3)C[C@H]2F)nn2ccc(-c3ccc4nccnc4c3)c12` [Compound 374, N-((3R,4S)-3-Fluoro-1-(oxetan-3-yl)piperidin-4-yl)-4-methoxy-5-(quinoxalin-6-yl)pyrrolo[2,1-f][1,2,4]triazin-2-amine], the IC50 is 2.9 nM. In the case of `COc1nc(N[C@H]2C[C@](C)(C(=O)N(C)C)C2)nn2ccc(-c3ccc4ncccc4c3)c12` [Compound 290, trans-3-((4-Methoxy-5-(quinolin-6-yl)pyrrolo[2,1-f][1,2,4]triazin-2-yl)amino)-N,N,1-trimethylcyclobutane-1-carboxamide], the IC50 amounted to 1.8 nM. Regarding `COc1nc(N[C@H]2CC[C@@](C)(O)CC2)nn2ccc(-c3cnc4nccn4c3)c12` [Compound 4, cis-4-((5-(Imidazo[1,2-a]pyrimidin-6-yl)-4-methoxypyrrolo[2,1-f][1,2,4]triazin-2-yl)amino)-1-methylcyclohexan-1-ol], the IC50 worked out at 1.1 nM.

Consider `COc1nc(N[C@@H]2CCN(CCO)CC2(F)F)nn2ccc(-c3cc(F)c4nc(C)n(CC(F)F)c4c3)c12` [Compound 525, (R)-2-(4-((5-(1-(2,2-Difluoroethyl)-4-fluoro-2-methyl-1H-benzo[d]imidazol-6-yl)-4-methoxypyrrolo[2,1-f][1,2,4]triazin-2-yl)amino)-3,3-difluoropiperidin-1-yl)ethan-1-ol], for which the IC50 was 2.4 nM. With `COc1nc(NC23CCC(O)(CC2)C3)nn2ccc(-c3cnc4nccn4c3)c12` [Compound 978, 4-((5-(Imidazo[1,2-a]pyrimidin-6-yl)-4-methoxypyrrolo[2,1-f][1,2,4]triazin-2-yl)amino)bicyclo[2.2.1]heptan-1-ol] the figure was 2.4 nM; with `COc1nc(N[C@H]2CC[C@@](C)(O)CC2)nn2ccc(-c3ccc4nnn(CC(F)(F)F)c4c3)c12` [Compound 910, (1s,4s)-4-((4-Methoxy-5-(1-(2,2,2-trifluoroethyl)-1H-benzo[d][1,2,3]triazol-6-yl)pyrrolo[2,1-f][1,2,4]triazin-2-yl)amino)-1-methylcyclohexan-1-ol], 7.7 nM; with `COc1nc(N[C@@H]2CCN(C(C)=O)C[C@@H]2F)nn2ccc(-c3ccc4nnn(CC(F)F)c4c3)c12` [Compound 770, 1-((3S,4R)-4-((5-(1-(2,2-Difluoroethyl)-1H-benzo[d][1,2,3]triazol-6-yl)-4-methoxypyrrolo[2,1-f][1,2,4]triazin-2-yl)amino)-3-fluoropiperidin-1-yl)ethan-1-one], 1.5 nM. With `CNC(=O)c1cnn2ccc(-c3ccn4nc(NC5CCC6(CC5)COC6)nc(OC)c34)cc12` [Compound 102, 5-(2-((2-Oxaspiro[3.5]nonan-7-yl)amino)-4-methoxypyrrolo[2,1-f][1,2,4]triazin-5-yl)-N-methylpyrazolo[1,5-a]pyridine-3-carboxamide] the figure was 1.9 nM; with `COc1nc(N[C@H]2CCN(C)CC2(F)F)nn2ccc(-c3ccc4ncccc4c3)c12` [Compound 320, (S)—N-(3,3-Difluoro-1-methylpiperidin-4-yl)-4-methoxy-5-(quinolin-6-yl)pyrrolo[2,1-f][1,2,4]triazin-2-amine], 8.2 nM. With `COc1nc(N[C@H](C)C2CCOCC2)nn2ccc(-c3cnc4nccn4c3)c12` [Compound 1147, (R)-5-(Imidazo[1,2-a]pyrimidin-6-yl)-4-methoxy-N-(1-(tetrahydro-2H-pyran-4-yl)ethyl)pyrrolo[2,1-f][1,2,4]triazin-2-amine] the figure was 2.7 nM; with `COc1nc(N[C@H]2C[C@](C)(C(=O)NC3(C)COC3)C2)nn2ccc(-c3ccc4ncccc4c3)c12` [Compound 1042, trans-3-((4-Methoxy-5-(quinolin-6-yl)pyrrolo[2,1-f][1,2,4]triazin-2-yl)amino)-1-methyl-N-(3-methyloxetan-3-yl)cyclobutane-1-carboxamide], 1.2 nM; with `CNC(=O)[C@]1(C)CC[C@H](Nc2nc(OC)c3c(-c4ccc5nnn(C)c5c4)ccn3n2)CC1` [Compound 225, cis-4-((4-Methoxy-5-(1-methyl-1H-benzo[d][1,2,3]triazol-6-yl)pyrrolo[2,1-f][1,2,4]triazin-2-yl)amino)-N,1-dimethylcyclohexane-1-carboxamide], 11.7 nM. With `COc1nc(N[C@H]2CC[C@@H](NC(C)=O)CC2)nn2cc(F)c(-c3ccc4ncccc4c3)c12` [Compound 1054, N-(cis-4-((6-Fluoro-4-methoxy-5-(quinolin-6-yl)pyrrolo[2,1-f][1,2,4]triazin-2-yl)amino)cyclohexyl)acetamide], the IC50 is 2 nM. With `COc1nc(N[C@H]2CCN(CCF)C[C@H]2F)nn2ccc(-c3ccc4ncccc4c3)c12` [Compound 314, N-((3R,4S)-3-Fluoro-1-(2-fluoroethyl)piperidin-4-yl)-4-methoxy-5-(quinolin-6-yl)pyrrolo[2,1-f][1,2,4]triazin-2-amine] the figure was 4.1 nM. Turning to `C[C@]1(O)CC[C@H](Nc2nc(O)c3c(-c4ccc5nccnc5c4)ccn3n2)CC1` [Compound 346, 2-((trans-4-Hydroxy-4-methylcyclohexyl)amino)-5-(quinoxalin-6-yl)pyrrolo[2,1-f][11,2,4]triazin-4-ol], the IC50 is 34.4 nM. With `COc1nc(NC2CCN(CC(F)F)CC2)nn2ccc(-c3ccc4nccn4c3)c12` [Compound 61, N-(1-(2,2-Difluoroethyl)piperidin-4-yl)-5-(imidazo[1,2-a]pyridin-6-yl)-4-methoxypyrrolo[2,1-f][1,2,4]triazin-2-amine] the figure was 4.9 nM.
